Test results as given in article PMC3230704 (Molecular pharmaceutics, 2011).
Where no end group is shown, it is not given here.

Tests used:
[1] = system: MDA-MB-435 tumor-bearing mice; assay: Ex vivo biodistribution imaging of excised tumors and organs; type: in vivo; details: 24 hrs post-injection, without inhibitor
MDA-MB-435 tumor = assay: In vivo NIR fluorescence imaging of MT1-MMP-positive tumor-bearing mice
MT1-MMP (MMP-14) = MT1-MMP (MMP-14) (Homo sapiens, UniProt P50281); assay: Fluorescence activation of MT-P by activated MT1-MMP; type: biochemical; details: MT1-MMP 0, 4, 20 and 40 nM, 60 min, spectrofluorimetry
MT1-MMP = details: cited from earlier work

| Substance | biodistribution of activated fluorescence [1] | onset of activation in tumor (MDA-MB-435 tumor; 5 nmol i.v., MDA-MB-435 tumor-bearing mice) | fluorescent signal in the tumor at 48 hrs post-injection (MDA-MB-435 tumor; 48 hrs post-injection) | activation of NIR fluorescent signals over the probe without MT1-MMP (MT1-MMP (MMP-14)) | specificity constant (kcat/Km) (MT1-MMP) |
| --- | --- | --- | --- | --- | --- |
| GRIGFLRTAKGG [MT-P] | activated predominantly in the tumor and liver over other organs | less than 1 hr | not detectable | up to 10 fold |  |
| RIGFLR |  |  |  |  | 777,200 M^−1s^−1 |
